Source: BigSolDB 2.1

Cc1cc(C)c(C(=O)P(=O)(c2ccccc2)c2ccccc2)c(C)c1
solubility (mole fraction)
Details	in acetone	in acetonitrile	in ethanol	in ethyl acetate	in isobutanol	in isopropanol	in methanol	in methyl acetate	in n-butanol	in n-propanol
273.15 K	0.0685	0.0242	0.0761	0.043	0.0761	0.0262	0.11	0.0504	0.0795	0.0827
278.15 K	0.0844	0.0312	0.0895	0.0529	0.0882	0.0366	0.125	0.0616	0.092	0.0983
283.15 K	0.101	0.0482	0.107	0.0621	0.109	0.0544	0.145	0.0767	0.116	0.118
288.15 K	0.12	0.0687	0.13	0.0819	0.133	0.0755	0.172	0.0963	0.139	0.139
293.15 K	0.143	0.101	0.154	0.102	0.159	0.11	0.195	0.12	0.162	0.168
298.15 K	0.169	0.144	0.184	0.126	0.187	0.158	0.233	0.149	0.2	0.196
303.15 K	0.197	0.197	0.218	0.16	0.22	0.21	0.272	0.186	0.236	0.226
308.15 K	0.232	0.271	0.266	0.194	0.256	0.276	0.298	0.229	0.271	0.262
